In patent US9198894B2, “Uses of 15-benzylidene-14-deoxy-11,12-didehydroandrographolide derivatives in the preparation of antineoplastic drugs” (Zhengzhou University, priority 2010, dated 2015):
Like-named read-outs stand apart in the source and are kept apart here. Marks after values point to notes of the source that are not given here.

Tests used:
[1] = system: Eca-109 human esophageal carcinoma cells; test: Wound healing (two-dimensional migration) assay, Eca-109; format: cell-based; settings: Eca-109, 10.00 μmol/l, 24 h (FIG. 1A)
Method: (§1) 1) Cell lines: Cell lines of 5637 human bladder carcinoma, Eca-109 human esophageal carcinoma, HT29 human colon cancer, SGC-7901 human gastric cancer, A549 human lung adenocarcinoma and PC-3 human prostate carcinoma were purchased from the Type Culture Collection of the Chinese Academy of Sciences, Shanghai, China.
(§2) 3) Methods: The cells were trypsinized to generate a single-cell suspension and seeded in 96-well plates (200 μl/well), and incubated with medium containing 10% fetal bovine serum at 37 in a humidified atmosphere with 5% CO2. Following a 24 h incubation, the cells were starved for an additional 12 h in low-serum media (1% FBS). The cultures of Eca-109, HT29, 5637, SGC-7901, A549 and PC-3 were then scratched away with a 200-μl plastic pipette tip and rinsed twice with PBS to remove wound-derived loose and dislodged cells. The cells were cultured in replaced medium without or with compounds at final concentrations of 0, 2.50, 5.00 and 10.00 μmol/L, respectively. At least seven randomly selected views along the scraped line in each well were photographed immediately and 24 h and 36 h after incubation using a digital camera at 50× magnification. The average scraped area in each well under each treatment condition was measured, and the percentage of inhibition against cell migration was calculated. % of inhibition=1−(A0−At)/(A′0−A′t)×100%, where, A0 and At are the areas of wound with compound treatment measured immediately and 24 or 36 h post-injury, respectively; A′0 and A′t are the areas of wound without compound treatment measured immediately and 24 or 36 h post-injury, respectively.

[2] = system: A549 human lung carcinoma cells; test: Wound healing (two-dimensional migration) assay, A549; format: cell-based; settings: A549, 10.00 μmol/l, 36 h (FIG. 1E)
Method: as §1, §2

[3] = system: Hela human cervical carcinoma; test: Colony formation assay, Hela; format: cell-based; settings: for IC50: read-out: Inhibition against tumor cell colony formation IC50
Method: (§3) 1) Cell lines: Cell lines of SGC-7901 human gastric cancer, A549 human lung adenocarcinoma and Hela human cervical carcinoma were purchased from the Type Culture Collection of the Chinese Academy of Sciences, Shanghai, China.
(§4) 3) Method: Colony formation assay was used. The cells were trypsinized to generate a single-cell suspension and seeded in a 6-well plate at a density of 100 cells/well, then drug-containing medium was added to the well to make the final concentration of compound to 0, 1.25, 2.50, 5.00, 7.50, 10.00 μmol/L, respectively. The experiments were performed in duplicate, and the cells were cultured at 37 in a humidified atmosphere with 5% CO2. Terminate cell culture when the clones can be seen in the culture plate, then remove the culture medium, and wash twice with PBS, fix the cells with methanol (5 ml/well) for 15 min and stain the cells with hematoxylin-eosin stain. The number of clones which comprised more than 50 cells was counted under a TS100-F-PH microscope (Nikon Company, Japan). Calculate relative colony formation ratio (%) and the IC50 values. Relative colony formation ratio (%)=(colony number of drug-administration well/colony number of control well)×100%.

[4] = system: A549 human lung adenocarcinoma; test: Colony formation assay, A549; format: cell-based; settings: for IC50: read-out: Inhibition against tumor cell colony formation IC50
Method: as §3, §4

[5] = system: SGC-7901 human gastric cancer; test: Colony formation assay, SGC-7901; format: cell-based; settings: for IC50: read-out: Inhibition against tumor cell colony formation IC50
Method: as §3, §4

[6] = system: 5637 human urinary bladder cancer cells; test: Wound healing (two-dimensional migration) assay, 5637; format: cell-based; settings: 5637, 10.00 μmol/l, 24 h (FIG. 1C)
Method: as §1, §2

Murine hepatoma H22 = test: Anti-tumor and anti-angiogenesis effects on H22 tumor-bearing mice; format: in vivo, mouse; settings: H22 mice, 1.35 mmol/kg ig once a day 7 d
From the text: 1) Animals: Kunming mice of clean grade, half male and half female, body weight 20±2 g, were purchased from the experimental animal center of Henan Province, China. Qualified Certificate number: SCXK (Yu) 2005-0001.
2) Cells: Murine hepatoma H22 cells were presently obtained from Henan Academy of Medical and Pharmaceutical Sciences (Zhengzhou, China).
Cyclophosphamide (Cyc) was produced by Tianjin Jingshi Pharmaceutical Co., Ltd., China (approval number of medicine: H12021006). Gelatin and carmine red were supplied by Sigma Chemical (St. Louis, Mo., U.S.A). All other chemicals and reagents were of the highest commercial grade available. All drugs were prepared with normal saline emulsified with Tween-80 (0.1% v/v) and dispersed in carboxymethylcellulose (0.5% v/v). 10% (W/V) carmine solution was prepared with salt solution containing 5% (W/V) gelatin which should be used immediately after preparation. The rest of medicines and reagents and the methods for preparation were the same with that of EXAMPLE 1.
4) Method: The H22 cells after in vivo passage for 7 d were diluted with physiological saline to adjust to a concentration of 1×10^7/mL, injected to the armpit of right forelimb of mice subcutaneously (0.2 ml/mouse), then mice were divided into 10 groups (n=12; 6 male and 6 female per group) randomly. 24 h later each group of mice was administrated intragastrically (ig; 0.2 ml/10 g) once a day continuously for 7 d with vehicle (tumor control group and control group), Cyc (standard control), or compounds at the tested doses. After the last drug administration and a following fasting of 8 h, each mouse was anesthetized with 1% pentobarbital in normal saline solution (80 mg/kg; ip). Mice of control group were injected with 5% gelatin in normal saline solution (40) via the tail vein (1 ml/mouse); whereas mice of other groups were injected replaced by 10% carmine red and 5% gelatin in normal saline solution (40). Mice were killed, then freezed in a refrigerator at −20 for 2 h to solidify. Tumors were segregated, weighed and homogenized with 3 M NaOH solution (10 ml/g tumor). The homogenate supernatant was prepared by being centrifuged for 20 min at 14000 rpm, and the absorbance at 490 nm was assayed using a PowerWaveX Microplate Scanning Spectrophotometer (Bio-tek Instruments, Inc). The carmine red content was calculated based on the standard curve. The vascular index (VI) expressed as milligram of carmine red per gram of tumor tissue. The inhibition ratio (IR) of tumor growth was calculated using the formula: IR (%)=[(Wc−Wt)/Wc]×100%, where Wc is the average tumor weight of the control group, and Wt is that of the drug treatment group. Data were expressed as mean±SD and statistical analysis was performed by SPSS Statistics 17.0 using a one-way analysis of variance (ANOVA) followed by unpaired t-test. A value of P<0.05 was considered statistically significant.

S180 murine sarcoma = test: Growth, invasion and metastasis of S180 sarcoma in tumor-bearing mice; format: in vivo, mouse
Method: 1) Animals: Be the same with that of EXAMPLE 4.
2) Cells: The S180 murine sarcoma cells were obtained from Henan Academy of Medical and Pharmaceutical Sciences (Zhengzhou, China).
4) Method: Mice were randomly divided into 10 groups (n=12). The S180 cells after in vivo passage for 7 d were diluted with physiological saline to adjust to a concentration of 1×10^7/mL. The inoculation of tumor cells was conducted in two batches, those of tumor control group I and groups treated with compounds 1 or 3 were in batch 1, those of tumor control group II, Cyc group and the compound 2 groups were in batch 2. The mice were injected with S180 cells (0.2 ml/mouse) into the armpit of right forelimb subcutaneously, and 24 h later each group of mice was administrated intragastrically (ig; 0.2 ml/10 g) once a day continuously for 9 d with vehicle (tumor control group), Cyc (standard control), or compounds at the tested doses. On day 10, kill the mice, observe and record the degree of invasion and metastasis of tumor tissues, then the tumor tissues were segregated and weighed. The inhibition ratio (IR) of tumor growth was calculated by the following formula: IR (%)=[(Wc−Wt)/Wc]×100%, where Wc is the average tumor weight of the control group, and Wt is that of the treatment group. Data were expressed as mean±SD and statistical analysis was performed by SPSS Statistics 17.0 using a one-way analysis of variance (ANOVA) followed by unpaired t-test. A value of P<0.05 was considered statistically significant.

| SMILES | Inhibitory effect on two-dimensional migration [1] | Inhibitory effect on two-dimensional migration [2] | Inhibition of colony formation compared with andrographolide ([3]; Hela) | IC50 ([3]; Hela) [nM] | Inhibition of colony formation compared with andrographolide [4] | IC50 [4] [nM] | Inhibition of colony formation compared with andrographolide [5] | IC50 [5] [nM] | Inhibitory effect on two-dimensional migration [6] | further results |
| --- | --- | --- | --- | --- | --- | --- | --- | --- | --- | --- |
| C=C1CCC2C(C)(COC(=O)CCC(=O)O)C(OC(=O)CCC(=O)O)CCC2(C)C1C=CC1=CC(=Cc2ccc(Cl)cc2)OC1=O (stereo not drawn) [Compound 8] | much stronger than that of other tumor cells | much stronger than that of other tumor cells | – | – | – | – | – | – | – | – |
| C=C1CCC2C(C)(CO)C(O)CCC2(C)C1C=CC1=CC(=Cc2ccc(F)cc2)OC1=O (stereo not drawn) [Compound 5] | much stronger than that of other tumor cells | much stronger than that of other tumor cells | remarkably stronger than that of andrographolide | 1470 | remarkably stronger than that of andrographolide | 2270 | remarkably stronger than that of andrographolide | 2070 | – | – |
| C=C1CCC2C(C)(CO)C(O)CCC2(C)C1C=CC1=CC(=Cc2ccc(Br)cc2)OC1=O (stereo not drawn) [Compound 6] | – | – | remarkably stronger than that of andrographolide | 1980 | remarkably stronger than that of andrographolide | 1670 | remarkably stronger than that of andrographolide | 2630 | – | – |
| C=C1CCC2C(C)(CO)C(O)CCC2(C)C1C=CC1=CC(=Cc2ccc(OC)cc2)OC1=O (stereo not drawn) [Compound 7] | – | stronger inhibition | remarkably stronger than that of andrographolide | 2400 | remarkably stronger than that of andrographolide | 3310 | remarkably stronger than that of andrographolide | 2450 | stronger inhibition | – |
| C=C1CC[C@@H]2[C@](C)(CO)[C@H](O)CC[C@@]2(C)[C@@H]1C/C=C1/C(=O)OC[C@H]1O [Compound 1, Andrographolide] | – | stronger inhibition | – | – | – | – | – | – | stronger inhibition | IC50 ([3]; Homo sapiens, HeLa): 2910 nM; IC50 ([4]; Homo sapiens): 11300 nM; IR (%) of tumor growth (Murine hepatoma H22): 31.70* %; Carmine contents (Murine hepatoma H22; mean ± s): 4.66 ± 2.58; VI (vascular index, mg carmine red per g tumor tissue) (Murine hepatoma H22; mean ± s): 5.10 ± 2.13 mg/g; IR (%) of S180 sarcoma growth (S180 murine sarcoma; 1.35 mmol/kg ig once a day 9 d): 17.18 ± 3.21 %; Average invasion and metastasis grade (S180 murine sarcoma; S180, grades 0-4, 1.35 mmol/kg): 0.67; Mouse Number Grade 0 (S180 murine sarcoma; S180 invasion, Grade 0: no invasion, 1.35 mmol/kg): 6; Mouse Number Grade 1 (S180 murine sarcoma; S180 invasion, Grade 1: invasion to right forelimb, 1.35 mmol/kg): 4; Mouse Number Grade 2 (S180 murine sarcoma; S180 invasion, Grade 2: right forelimb and the left side of body, 1.35 mmol/kg): 2; Mouse Number Grade 3 (S180 murine sarcoma; S180 invasion, Grade 3: also the ribs and muscles in chest, 1.35 mmol/kg): 0; Mouse Number Grade 4 (S180 murine sarcoma; S180 invasion, Grade 4: invasion into chest or abdominal cavity, 1.35 mmol/kg): 0; IC50 ([5]; Homo sapiens): 19000 nM |
